Test results as given in paper PMC6044507 (ACS Omega, 2018).
Entries after “also recorded” stand apart in the source; their conditions may differ. One block for each molecule: values may come before it.

Legend:
CHO wild-type (wt) cells = assay: cAMP accumulation assay in wild-type CHO cells not expressing GPR84
human GPR84 [1] = target: T1, human GPR84 (Homo sapiens, UniProt Q9NQS5); assay: cell-based; type: cell-based; conditions: for Emax: read-out: efficacy (Emax), cAMP assay; for EC50: CHO cells expressing human GPR84, forskolin 10 μM
Target sequence in this assay (Q9NQS5 whole entry): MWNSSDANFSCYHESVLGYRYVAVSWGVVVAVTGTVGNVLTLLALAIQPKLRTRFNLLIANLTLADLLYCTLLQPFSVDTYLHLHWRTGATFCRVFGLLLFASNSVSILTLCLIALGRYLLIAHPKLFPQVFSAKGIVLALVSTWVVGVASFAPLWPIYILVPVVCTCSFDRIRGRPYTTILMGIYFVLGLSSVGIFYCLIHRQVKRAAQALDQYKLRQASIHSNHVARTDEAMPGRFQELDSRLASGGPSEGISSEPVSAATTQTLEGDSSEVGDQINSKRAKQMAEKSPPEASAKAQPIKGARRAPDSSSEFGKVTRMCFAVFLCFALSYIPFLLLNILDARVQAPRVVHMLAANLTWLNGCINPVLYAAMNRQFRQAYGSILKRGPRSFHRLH

[2] = metabolic stability in human liver microsomes; type: in vitro ADME; conditions: for metabolic stability, in words: human liver microsomes 0.5 mg/mL, compound 1 μM; for degradation after an incubation period of 60 min: human liver microsomes; for degradation after 30 min of incubation, in words: human microsomes
human GPR84 [3] = target: T1, human GPR84; assay: cell-based; conditions: EC50 ± SEM, β-arrestin assay, CHO cells expressing human GPR84
Target sequence in this assay (Q9NQS5 whole entry): as above
Target sequence in this assay (P32121 whole entry partner): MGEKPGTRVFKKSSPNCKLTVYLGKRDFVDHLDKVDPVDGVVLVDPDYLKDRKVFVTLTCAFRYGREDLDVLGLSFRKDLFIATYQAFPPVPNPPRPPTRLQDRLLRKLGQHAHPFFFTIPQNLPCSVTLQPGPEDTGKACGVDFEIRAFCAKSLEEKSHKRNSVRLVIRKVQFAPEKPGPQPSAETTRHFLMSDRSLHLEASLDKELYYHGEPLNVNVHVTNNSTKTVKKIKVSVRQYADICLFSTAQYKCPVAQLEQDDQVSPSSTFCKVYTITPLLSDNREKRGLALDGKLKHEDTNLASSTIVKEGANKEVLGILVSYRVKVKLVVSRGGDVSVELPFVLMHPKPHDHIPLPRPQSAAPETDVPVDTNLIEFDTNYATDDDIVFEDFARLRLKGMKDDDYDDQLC

human GPR84 [4] = target: T1, human GPR84; conditions: compound 10 μM
Target sequence in this assay (Q9NQS5 whole entry): as the sequence (Q9NQS5 whole entry) above
Target sequence in this assay (P32121 whole entry partner): as the sequence (P32121 whole entry partner) above

human GPR84 [5] = assay: pathway bias calculation, Gi; type: cell-based; conditions: corresponding to the bias factor
[6] = test system: X-linked inhibitor of apoptosis; conditions: read-out: IC50, X-linked inhibitor of apoptosis; cited from earlier work
rodents = conditions: orally, acute exposure; cited from earlier work
[7] = high concentrations of up to 100 μM
[8] = both, human, pooled human liver microsomes

Structure (SMILES): Oc1cc(NCCc2ccccc2)nc(O)n1 [Compound 42, 6-(2-Phenylethylamino)-2,4(1H,3H)-pyrimidinedione]
metabolic stability, in words [2]: highly stable
degradation after an incubation period of 60 min [2]: negligible
degradation after 30 min of incubation, in words [2]: no degradation

Structure (SMILES): O=c1cc(NCCc2ccc(Cl)cc2)[nH]c(=O)[nH]1 [Compound 47, 6-((p-chlorophenylethyl)amino)-2,4(1H,3H)-pyrimidinedione]
effect on forskolin-induced cAMP accumulation in CHO wt cells (CHO wild-type (wt) cells; concentrations of up to 1 μM): None of the tested compounds showed any significant effect
preference for Gi coupling versus β-arrestin recruitment (human GPR84 [5]): 79 fold
Emax (human GPR84 [1]): 137%

Structure (SMILES): O=c1cc(NCCc2ccc(Br)cc2)[nH]c(=O)[nH]1 [Compound 48, 6-(p-Bromophenylethylamino)-2,4(1H,3H)-pyrimidinedione]
effect on forskolin-induced cAMP accumulation in CHO wt cells (CHO wild-type (wt) cells; concentrations of up to 1 μM): None of the tested compounds showed any significant effect
preference for Gi coupling versus β-arrestin recruitment (human GPR84 [5]): 20 fold
Emax (human GPR84 [1]): 127%
metabolic stability, in words [2]: metabolically stable; also recorded: highly stable
degradation after an incubation period of 60 min [2]: negligible
degradation after 30 min of incubation, in words [2]: no degradation

Structure (SMILES): COc1ccc(CCNc2cc(=O)[nH]c(=O)[nH]2)cc1OC [Compound 60, 6-(m,p-Dimethoxyphenethylamino)-2,4(1H,3H)-pyrimidinedione]
EC50 (human GPR84 [3]): > 10000 nM
EC50 (human GPR84 [1]; EC50 ± SEM, cAMP assay): 810 ± 230 nM
Emax (human GPR84 [1]): 116%
percent receptor activation at 10 μM, β-arrestin assay (human GPR84 [4]): 28%

Structure (SMILES): CCCCCCCCCCCC1=C(O)C(=O)C=C(O)C1=O [embelin (6), embelin]
IC50 [6]: 4100 nM
dose found to be safe (rodents): up to 3 g/kg

More lines, main results first:

Emax (human GPR84 [1]): 104%
Structure (SMILES): CCCCCCCCNc1cc(=O)[nH]c(=O)[nH]1 [Compound 4, 6-octylaminouracil]
effect in nontransfected CHO cells (cAMP assay) (CHO wild-type (wt) cells): no effect
effect on forskolin-induced cAMP accumulation in CHO wt cells (CHO wild-type (wt) cells; concentrations of up to 1 μM): None of the tested compounds showed any significant effect
effect on forskolin-induced cAMP accumulation in CHO wt cells (CHO wild-type (wt) cells; [7]): no effect

Emax (human GPR84 [1]): 127%
degradation after an incubation period of 60 min [2]: negligible
degradation after 30 min of incubation, in words [2]: no degradation
Structure (SMILES): CCCCCCNc1cc(=O)[nH]c(=O)[nH]1 [Compound 20, 6-Hexylamino-2,4(1H,3H)-pyrimidinedione]
effect on forskolin-induced cAMP accumulation in CHO wt cells (CHO wild-type (wt) cells; concentrations of up to 1 μM): None of the tested compounds showed any significant effect
effect on forskolin-induced cAMP accumulation in CHO wt cells (CHO wild-type (wt) cells; [7]): no effect
metabolic stability, in words [2]: metabolically stable; also recorded: highly stable

EC50 (human GPR84 [3]): 34 ± 7 nM
Emax (human GPR84 [1]): 118%
half-life at 1 μM [2, 8]: 2 min
microsomal CLint at 1 μM [2, 8]: 880 µL/min/mg
Structure (SMILES): CCCCCCCCCNc1cc(=O)[nH]c(=O)[nH]1 [Compound 22, 6-Nonylamino-2,4(1H,3H)-pyrimidinedione]

EC50 (human GPR84 [3]): > 10000 nM
EC50 (human GPR84 [1]; EC50 ± SEM, cAMP assay): 1900 ± 680 nM
Emax (human GPR84 [1]): 72%
percent receptor activation at 10 μM, β-arrestin assay (human GPR84 [4]): 8%
Structure (SMILES): CCCCCCCCCCNc1cc(=O)n(C)c(=O)[nH]1 [Compound 33, 6-Decylamino-3-methyl-2,4(1H,3H)-pyrimidinedione]

EC50 (human GPR84 [3]): 120 ± 50 nM
EC50 (human GPR84 [1]; EC50, cAMP assay): < 10 nM
Emax (human GPR84 [1]): 136%
Structure (SMILES): CCc1ccc(CCNc2cc(=O)[nH]c(=O)[nH]2)cc1 [Compound 49, 6-(p-Ethylphenylethylamino)-2,4(1H,3H)-pyrimidinedione]
effect on forskolin-induced cAMP accumulation in CHO wt cells (CHO wild-type (wt) cells; concentrations of up to 1 μM): None of the tested compounds showed any significant effect

EC50 (human GPR84 [3]): > 10000 nM
percent receptor activation at 10 μM, β-arrestin assay (human GPR84 [4]): 14%
Structure (SMILES): O=c1cc(NCCc2c[nH]c3ccccc23)[nH]c(=O)[nH]1 [Compound 62, 6-(1H-Indol-3-ylethylamino)-2,4(1H,3H)-pyrimidinedione]
